Tests used:
Type in all cases: in vivo
[1] = system: Cyperus difformis; assay: Test Example 3: herbicidal effect by application to foliage (Wagner pot, water depth 0.1-0.5 cm); details: Nineteenth Table; application to foliage; application herbicide amount 320 g/ha
Excerpt: (§1) 5 Herbicidal ratio of 90% or more (almost completely withered) 4 Herbicidal ratio of 70% or more and less than 90% 3 Herbicidal ratio of 40% or more and less than 70% 2 Herbicidal ratio of 20% or more and less than 40% 1 Herbicidal ratio of 5% or more and less than 20% 0 Herbicidal ratio of 5% or less (almost no effect) [Test Example 3] Herbicidal Effect Test by Application to Foliage After alluvial soil was placed into 1/10000 are of Wagner pot, water was poured and mixed to form a condition having a water depth of 0.1 cm to 0.5 cm. Seeds of Echinochloa crus-galli var. crus-galli, Leptochloa chinensis, Cyperus difformis, and Oryza sativa were sowed and the pot was placed in the greenhouse of 25° C. to 30° C. to grow the plants. After the plants were grown for 14 days, the emulsion agent containing the compound of the present invention prepared in accordance with Formulation Example 2 was diluted with water so as to be a predetermined herbicide amount and the diluted compound was uniformly applied to a stem and leaf part with a small-size spray. Three weeks after the herbicide application, effects on each plant were investigated in accordance with the criteria of Test Example 1. A: Echinochloa oryzicola Vasing., B: Scirpus juncoides, C: Monochoria vaginalis, D: Leptochloa chinensis, E: Cyperus difformis, F: Digitaria ciliaris, G: Setaria viridis, H: Echinochloa crus-galli var. crus-galli, I: Avena fatua, J: Alopecurus myosuroides, K: Lolium multiflorum Lam., L: Apera spica-venti., M: Abutilon theophrasti, N: Amaranthus retroflexus, O: Chenopodium album, P: Stellaria media, Q: Galium spurium, R: Veronica persica, a: transplanted Oryza sativa, b: directly sowed Oryza sativa, c: Zea mays, d: Glycine max, e: Triticum aestivum, f: Beta vulgaris ssp. vulgaris, and g: Brassica campestris L. The application herbicide amount (g/ha) means an amount that a concentration is adjusted so that, when an application amount is converted into per hectare (1 ha), the herbicide is applied by the number of grams (g) of the described value.

[2] = system: Echinochloa crus-galli var. crus-galli; assay: as above; details: Nineteenth Table; application to foliage; application herbicide amount 320 g/ha
Excerpt: as §1

[3] = system: Leptochloa chinensis; assay: as above; details: Nineteenth Table; application to foliage; application herbicide amount 320 g/ha
Excerpt: as §1

[4] = system: Abutilon theophrasti; assay: Test Example 4: herbicidal effect by application to foliage (diluvial soil, plastic box); details: application to foliage, 320 g/ha
Excerpt: (§2) 5 Herbicidal ratio of 90% or more (almost completely withered) 4 Herbicidal ratio of 70% or more and less than 90% 3 Herbicidal ratio of 40% or more and less than 70% 2 Herbicidal ratio of 20% or more and less than 40% 1 Herbicidal ratio of 5% or more and less than 20% 0 Herbicidal ratio of 5% or less (almost no effect) [Test Example 4] Herbicidal Effect Test by Application to Foliage Sterilized diluvial soil was placed in a plastic box having a length of 21 cm, a width of 13 cm, and a depth of 7 cm. Each of the seeds of Digitaria ciliaris, Setaria viridis, Echinochloa crus-galli var. crus-galli, Avena fatua, Alopecurus myosuroides, Lolium multiflorum Lam., Apera spica-venti., Abutilon theophrasti, Amaranthus retroflexus, Chenopodium album, Stellaria media, Galium spurium, Veronica persica, Zea mays, Glycine max, Oryza sativa, Triticum aestivum, Beta vulgaris ssp. vulgaris, and Brassica campestris L. was sowed in a spot-like manner and was covered with the soil of about 1.5 cm thick. Thereafter, the plants were grown in the greenhouse of 25° C. to 30° C. After the plants were grown for 14 days, the emulsion agent containing the compound of the present invention prepared in accordance with Formulation Example 2 was diluted with water so as to be a predetermined herbicide amount and the diluted compound was uniformly applied to a stem and leaf part with a small-size spray. Three weeks after the herbicide application, effects on each plant were investigated in accordance with the criteria of Test Example 1. A: Echinochloa oryzicola Vasing., B: Scirpus juncoides, C: Monochoria vaginalis, D: Leptochloa chinensis, E: Cyperus difformis, F: Digitaria ciliaris, G: Setaria viridis, H: Echinochloa crus-galli var. crus-galli, I: Avena fatua, J: Alopecurus myosuroides, K: Lolium multiflorum Lam., L: Apera spica-venti., M: Abutilon theophrasti, N: Amaranthus retroflexus, O: Chenopodium album, P: Stellaria media, Q: Galium spurium, R: Veronica persica, a: transplanted Oryza sativa, b: directly sowed Oryza sativa, c: Zea mays, d: Glycine max, e: Triticum aestivum, f: Beta vulgaris ssp. vulgaris, and g: Brassica campestris L. The application herbicide amount (g/ha) means an amount that a concentration is adjusted so that, when an application amount is converted into per hectare (1 ha), the herbicide is applied by the number of grams (g) of the described value.

[5] = system: Alopecurus myosuroides; assay: as above; details: application to foliage, 320 g/ha
Excerpt: as §2

[6] = system: Amaranthus retroflexus; assay: as above; details: application to foliage, 320 g/ha
Excerpt: as §2

[7] = system: Apera spica-venti.; assay: as above; details: application to foliage, 320 g/ha
Excerpt: as §2

[8] = system: Avena fatua; assay: as above; details: application to foliage, 320 g/ha
Excerpt: as §2

[9] = system: Chenopodium album; assay: as above; details: application to foliage, 320 g/ha
Excerpt: as §2

[10] = system: Digitaria ciliaris; assay: as above; details: application to foliage, 320 g/ha
Excerpt: as §2

[11] = system: Echinochloa crus-galli var. crus-galli; assay: as above; details: application to foliage, 320 g/ha
Excerpt: as §2

[12] = system: Galium spurium; assay: as above; details: application to foliage, 320 g/ha
Excerpt: as §2

[13] = system: Lolium multiflorum Lam.; assay: as above; details: application to foliage, 320 g/ha
Excerpt: as §2

[14] = system: Setaria viridis; assay: as above; details: application to foliage, 320 g/ha
Excerpt: as §2

[15] = system: Stellaria media; assay: as above; details: application to foliage, 320 g/ha
Excerpt: as §2

[16] = system: Veronica persica; assay: as above; details: application to foliage, 320 g/ha
Excerpt: as §2

[17] = system: Beta vulgaris ssp. vulgaris; assay: Test Example 4: effect on crop by application to foliage (diluvial soil, plastic box); details: application to foliage, 320 g/ha
Procedure, shortened: (§3)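 Scores run from 0 (herbicidal ratio ≤5%) to 5 (≥90%, almost fully withered) and were assessed three weeks after foliar spraying. Seedlings had been raised for 14 days at 25-30° C in sterilized diluvial soil before treatment, with the emulsion diluted in water to the stated g/ha dose.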

[18] = system: Brassica campestris L.; assay: as above; details: application to foliage, 320 g/ha
Procedure, shortened: as §3

[19] = system: Glycine max; assay: as above; details: application to foliage, 320 g/ha
Procedure, shortened: as §3

[20] = system: Triticum aestivum; assay: as above; details: application to foliage, 320 g/ha
Procedure, shortened: as §3

[21] = system: Zea mays; assay: as above; details: application to foliage, 320 g/ha
Procedure, shortened: as §3

[22] = system: directly sowed Oryza sativa; assay: as above; details: application to foliage, 320 g/ha
Procedure, shortened: as §3

Compound	herbicidal effect, M (Abutilon theophrasti) [4]	herbicidal effect, J (Alopecurus myosuroides) [5]	herbicidal effect, N (Amaranthus retroflexus) [6]	herbicidal effect, L (Apera spica-venti.) [7]	herbicidal effect, I (Avena fatua) [8]	herbicidal effect, O (Chenopodium album) [9]	herbicidal effect, F (Digitaria ciliaris) [10]	herbicidal effect, H (Echinochloa crus-galli var. crus-galli) [11]	herbicidal effect, Q (Galium spurium) [12]	herbicidal effect, K (Lolium multiflorum Lam.) [13]	herbicidal effect, G (Setaria viridis) [14]	herbicidal effect, P (Stellaria media) [15]	herbicidal effect, R (Veronica persica) [16]	effect on crop, f (Beta vulgaris ssp. vulgaris) [17]	effect on crop, g (Brassica campestris L.) [18]	effect on crop, c (Glycine max) [19]	effect on crop, e (Triticum aestivum) [20]	effect on crop, b (Zea mays) [21]	effect on crop, d (directly sowed Oryza sativa) [22]	also measured
CCOC(=O)Cn1nnnc1NC(=O)c1ccc(C(F)(F)F)n2c(C(C)C)nnc12 [2-092]	1 (Herbicidal ratio of 5% or more and less than 20%)	0 (Herbicidal ratio of 5% or less (almost no effect))	1 (Herbicidal ratio of 5% or more and less than 20%)	0 (Herbicidal ratio of 5% or less (almost no effect))	1 (Herbicidal ratio of 5% or more and less than 20%)	3 (Herbicidal ratio of 40% or more and less than 70%)	0 (Herbicidal ratio of 5% or less (almost no effect))	2 (Herbicidal ratio of 20% or more and less than 40%)	1 (Herbicidal ratio of 5% or more and less than 20%)	0 (Herbicidal ratio of 5% or less (almost no effect))	0 (Herbicidal ratio of 5% or less (almost no effect))	3 (Herbicidal ratio of 40% or more and less than 70%)	1 (Herbicidal ratio of 5% or more and less than 20%)	3 (Herbicidal ratio of 40% or more and less than 70%)	0 (Herbicidal ratio of 5% or less (almost no effect))	0 (Herbicidal ratio of 5% or less (almost no effect))	0 (Herbicidal ratio of 5% or less (almost no effect))	0 (Herbicidal ratio of 5% or less (almost no effect))	1 (Herbicidal ratio of 5% or more and less than 20%)	E (herbicidal effect grade) [1]: 2 (Herbicidal ratio of 20% or more and less than 40%); H (herbicidal effect grade) [2]: 2 (Herbicidal ratio of 20% or more and less than 40%); D (herbicidal effect grade) [3]: 3 (Herbicidal ratio of 40% or more and less than 70%)
CCn1nc2c(C(=O)Nc3nonc3C)ccc(C(F)(F)F)n2c1=O [6-008]	1 (Herbicidal ratio of 5% or more and less than 20%)	0 (Herbicidal ratio of 5% or less (almost no effect))	0 (Herbicidal ratio of 5% or less (almost no effect))	0 (Herbicidal ratio of 5% or less (almost no effect))	0 (Herbicidal ratio of 5% or less (almost no effect))	3 (Herbicidal ratio of 40% or more and less than 70%)	0 (Herbicidal ratio of 5% or less (almost no effect))	0 (Herbicidal ratio of 5% or less (almost no effect))	0 (Herbicidal ratio of 5% or less (almost no effect))	0 (Herbicidal ratio of 5% or less (almost no effect))	0 (Herbicidal ratio of 5% or less (almost no effect))	1 (Herbicidal ratio of 5% or more and less than 20%)	0 (Herbicidal ratio of 5% or less (almost no effect))	1 (Herbicidal ratio of 5% or more and less than 20%)	0 (Herbicidal ratio of 5% or less (almost no effect))	0 (Herbicidal ratio of 5% or less (almost no effect))	0 (Herbicidal ratio of 5% or less (almost no effect))	0 (Herbicidal ratio of 5% or less (almost no effect))	1 (Herbicidal ratio of 5% or more and less than 20%)	–
